The values that follow come from patent US20080188688A1, “SOLVENTS FOR PHASE-TRANSFER-CATALYZED REACTIONS” (priority 2007, published 2008).

This data set in a line: Log P determined in accordance with OECD Guideline No. 107 for the Testing of Chemicals (water/n-octanol).
Where [1] appears, read: Log P (Log P value of the solvent, as measured in accordance with Guideline No. 107), summary table of the examples.
The mark [2] stands for this setting: Log P determined in accordance with OECD Guideline 107 for the Testing of Chemicals, water/n-octanol 1:1 by weight, 20° C.
The mark [3] stands for this setting: log P value, as printed in the abbreviations list.

A word on the logP: it is the decadic logarithm of the partition coefficient of the neutral form, usually between octanol and water. The low end stands for a more hydrophilic compound, the high end for a more lipophilic compound.

The structures appear in SMILES notation.

In the case of `CCCCCCCCCC(=O)N(C)C` [Decanoic acid dimethyl amide], the logP reads like this: under setting [1], 2.94; under setting [2], 2.94; under setting [3], 2.94.
On to `CC(=O)CC(C)C` [MIBK, methyl isobutyl ketone], for which the log partition coefficient (logP) by setting is: under setting [1], 1.4; under setting [2], 1.4; under setting [3], 1.31.
In the case of `COC(C)(C)C` [MTBE, methyl tert.butyl ether], the logP was 1.12 under setting [1] and 1.12 under setting [2].
